PubChem BioAssay AID1259407 (Chemical Carcinogenesis Research Information System (CCRIS), 2018)
The source made the active and inactive calls. The rule behind the calls is not given here.

Tested on: CCRIS mutagenicity, Ames/micronucleus/aberration tests
Experiment: CCRIS mutagenicity studies
[1] = Test System: AMES SALMONELLA TYPHIMURIUM, Strain/Indicator: TA98, Metabolic Activation: NONE, Method: PREINCUBATION
[2] = Test System: AMES SALMONELLA TYPHIMURIUM, Strain/Indicator: TA100, Metabolic Activation: NONE, Method: PREINCUBATION

## CCN(CC)c1ccc2c(-c3ccccc3C(=O)O)c3ccc(=[N+](CC)CC)cc-3oc2c1
Test System: AMES SALMONELLA TYPHIMURIUM, Strain/Indicator: TA97, Metabolic Activation: HAMSTER, LIVER, S-9, AROCLOR 1254 (10%), Method: PREINCUBATION
  mutagenic call: inactive; negative
Test System: AMES SALMONELLA TYPHIMURIUM, Strain/Indicator: TA97, Metabolic Activation: HAMSTER, LIVER, S-9, AROCLOR 1254 (30%), Method: PREINCUBATION
  mutagenic call: inactive; negative
Test System: AMES SALMONELLA TYPHIMURIUM, Strain/Indicator: TA97, Metabolic Activation: NONE, Method: PREINCUBATION
  mutagenic call: inactive; negative
Test System: AMES SALMONELLA TYPHIMURIUM, Strain/Indicator: TA97, Metabolic Activation: RAT, LIVER, S-9, AROCLOR 1254 (10%), Method: PREINCUBATION
  mutagenic call: inactive; negative
Test System: AMES SALMONELLA TYPHIMURIUM, Strain/Indicator: TA97, Metabolic Activation: RAT, LIVER, S-9, AROCLOR 1254 (30%), Method: PREINCUBATION
  mutagenic call: inactive; negative
Test System: AMES SALMONELLA TYPHIMURIUM, Strain/Indicator: TA98, Metabolic Activation: HAMSTER, LIVER, S-9, AROCLOR 1254 (10%), Method: PREINCUBATION
  mutagenic call: inactive; negative
Test System: AMES SALMONELLA TYPHIMURIUM, Strain/Indicator: TA98, Metabolic Activation: HAMSTER, LIVER, S-9, AROCLOR 1254 (30%), Method: PREINCUBATION
  mutagenic call: inactive; negative
[1]
  mutagenic call: inactive; negative
Test System: AMES SALMONELLA TYPHIMURIUM, Strain/Indicator: TA98, Metabolic Activation: RAT, LIVER, S-9, AROCLOR 1254 (10%), Method: PREINCUBATION
  mutagenic call: inactive; negative
Test System: AMES SALMONELLA TYPHIMURIUM, Strain/Indicator: TA98, Metabolic Activation: RAT, LIVER, S-9, AROCLOR 1254 (30%), Method: PREINCUBATION
  mutagenic call: inactive; negative
Test System: AMES SALMONELLA TYPHIMURIUM, Strain/Indicator: TA98, Metabolic Activation: RAT, LIVER, S-9, BETA-NAPHTHOFLAVONE AND PHENOBARBITAL, Method: PREINCUBATION
  mutagenic call: active; positive
Test System: AMES SALMONELLA TYPHIMURIUM, Strain/Indicator: TA100, Metabolic Activation: HAMSTER, LIVER, S-9, AROCLOR 1254 (10%), Method: PREINCUBATION
  mutagenic call: inactive; negative
Test System: AMES SALMONELLA TYPHIMURIUM, Strain/Indicator: TA100, Metabolic Activation: HAMSTER, LIVER, S-9, AROCLOR 1254 (30%), Method: PREINCUBATION
  mutagenic call: inactive; negative
[2]
  mutagenic call: inactive; negative
Test System: AMES SALMONELLA TYPHIMURIUM, Strain/Indicator: TA100, Metabolic Activation: RAT, LIVER, S-9, AROCLOR 1254 (10%), Method: PREINCUBATION
  mutagenic call: inactive; negative
Test System: AMES SALMONELLA TYPHIMURIUM, Strain/Indicator: TA100, Metabolic Activation: RAT, LIVER, S-9, AROCLOR 1254 (30%), Method: PREINCUBATION
  mutagenic call: inactive; negative
Test System: AMES SALMONELLA TYPHIMURIUM, Strain/Indicator: TA1535, Metabolic Activation: HAMSTER, LIVER, S-9, AROCLOR 1254 (5%), Method: PREINCUBATION
  mutagenic call: inactive; negative
Test System: AMES SALMONELLA TYPHIMURIUM, Strain/Indicator: TA1535, Metabolic Activation: HAMSTER, LIVER, S-9, AROCLOR 1254 (10%), Method: PREINCUBATION
  mutagenic call: inactive; negative
Test System: AMES SALMONELLA TYPHIMURIUM, Strain/Indicator: TA1535, Metabolic Activation: HAMSTER, LIVER, S-9, AROCLOR 1254 (30%), Method: PREINCUBATION
  mutagenic call: inactive; negative
Test System: AMES SALMONELLA TYPHIMURIUM, Strain/Indicator: TA1535, Metabolic Activation: NONE, Method: PREINCUBATION
  mutagenic call: inactive; negative
Test System: AMES SALMONELLA TYPHIMURIUM, Strain/Indicator: TA1535, Metabolic Activation: RAT, LIVER, S-9, AROCLOR 1254 (5%), Method: PREINCUBATION
  mutagenic call: inactive; negative
Test System: AMES SALMONELLA TYPHIMURIUM, Strain/Indicator: TA1535, Metabolic Activation: RAT, LIVER, S-9, AROCLOR 1254 (10%), Method: PREINCUBATION
  mutagenic call: inactive; negative
Test System: AMES SALMONELLA TYPHIMURIUM, Strain/Indicator: TA1535, Metabolic Activation: RAT, LIVER, S-9, AROCLOR 1254 (30%), Method: PREINCUBATION
  mutagenic call: inactive; negative
Test System: AMES SALMONELLA TYPHIMURIUM, Strain/Indicator: TA1537, Metabolic Activation: HAMSTER, LIVER, S-9, AROCLOR 1254 (10%), Method: PREINCUBATION
  mutagenic call: inactive; negative
Test System: AMES SALMONELLA TYPHIMURIUM, Strain/Indicator: TA1537, Metabolic Activation: NONE, Method: PREINCUBATION
  mutagenic call: inactive; negative
Test System: AMES SALMONELLA TYPHIMURIUM, Strain/Indicator: TA1537, Metabolic Activation: RAT, LIVER, S-9, AROCLOR 1254 (10%), Method: PREINCUBATION
  mutagenic call: inactive; negative
Test System: AMES SALMONELLA TYPHIMURIUM, Strain/Indicator: TA1538, Metabolic Activation: NONE, Method: STANDARD PLATE
  mutagenic call: inactive; negative
Test System: AMES SALMONELLA TYPHIMURIUM, Strain/Indicator: TA1538, Metabolic Activation: RAT, LIVER, S-9, AROCLOR 1254, Method: STANDARD PLATE
  mutagenic call: inactive; negative
Test System: CHINESE HAMSTER V-79, Strain/Indicator: V-79/6-THIOGUANINE, Metabolic Activation: NONE, Method: SUSPENSION/PLATE
  mutagenic call: inactive; negative
Test System: CHINESE HAMSTER V-79, Strain/Indicator: V-79/6-THIOGUANINE, Metabolic Activation: RAT, LIVER, S-9, PHENOBARBITAL AND BETA-NAPHTHOFLAVONE, Method: SUSPENSION/PLATE
  mutagenic call: inactive; negative

## Nc1cc2nc3ccccc3nc2cc1O
Test System: AMES SALMONELLA TYPHIMURIUM, Strain/Indicator: TA98(1,8-DNP6), Metabolic Activation: NONE, Method: PREINCUBATION
  mutagenic call: inactive; negative
Test System: AMES SALMONELLA TYPHIMURIUM, Strain/Indicator: TA98(1,8-DNP6), Metabolic Activation: S-9, Method: PREINCUBATION
  mutagenic call: inactive; negative
[1]
  mutagenic call: inactive; negative
Test System: AMES SALMONELLA TYPHIMURIUM, Strain/Indicator: TA98, Metabolic Activation: NONE, Method: STANDARD PLATE
  mutagenic call: active; positive
Test System: AMES SALMONELLA TYPHIMURIUM, Strain/Indicator: TA98, Metabolic Activation: RAT, LIVER, S-9, AROCLOR 1254, Method: STANDARD PLATE
  mutagenic call: active; positive
Test System: AMES SALMONELLA TYPHIMURIUM, Strain/Indicator: TA98, Metabolic Activation: S-9, Method: PREINCUBATION
  mutagenic call: inactive; negative
Test System: AMES SALMONELLA TYPHIMURIUM, Strain/Indicator: TA100(OAT-), Metabolic Activation: NONE, Method: PREINCUBATION
  mutagenic call: inactive; negative
Test System: AMES SALMONELLA TYPHIMURIUM, Strain/Indicator: TA100(OAT-), Metabolic Activation: S-9, Method: PREINCUBATION
  mutagenic call: inactive; negative
[2]
  mutagenic call: inactive; negative
Test System: AMES SALMONELLA TYPHIMURIUM, Strain/Indicator: TA100, Metabolic Activation: NONE, Method: STANDARD PLATE
  mutagenic call: inactive; negative
Test System: AMES SALMONELLA TYPHIMURIUM, Strain/Indicator: TA100, Metabolic Activation: RAT, LIVER, S-9, AROCLOR 1254, Method: STANDARD PLATE
  mutagenic call: active; positive
Test System: AMES SALMONELLA TYPHIMURIUM, Strain/Indicator: TA100, Metabolic Activation: S-9, Method: PREINCUBATION
  mutagenic call: inactive; negative
Test System: AMES SALMONELLA TYPHIMURIUM, Strain/Indicator: TA1537, Metabolic Activation: NONE, Method: STANDARD PLATE
  mutagenic call: active; positive
Test System: AMES SALMONELLA TYPHIMURIUM, Strain/Indicator: TA1537, Metabolic Activation: RAT, LIVER, S-9, AROCLOR 1254, Method: STANDARD PLATE
  mutagenic call: active; positive
Test System: AMES SALMONELLA TYPHIMURIUM, Strain/Indicator: YG1024, Metabolic Activation: PLANT CELL-FREE EXTRACT, Method: PREINCUBATION
  mutagenic call: active; positive
Test System: AMES SALMONELLA TYPHIMURIUM, Strain/Indicator: YG1024, Metabolic Activation: S-9, Method: PREINCUBATION
  mutagenic call: active; positive
Test System: AMES SALMONELLA TYPHIMURIUM, Strain/Indicator: YG1029, Metabolic Activation: S-9, Method: PREINCUBATION
  mutagenic call: active; positive
